# Target: T1, Membrane-associated tyrosine- and threonine-specific cdc2-inhibitory kinase (Homo sapiens, UniProt Q99640)
# T1 sequence (Q99640 whole entry): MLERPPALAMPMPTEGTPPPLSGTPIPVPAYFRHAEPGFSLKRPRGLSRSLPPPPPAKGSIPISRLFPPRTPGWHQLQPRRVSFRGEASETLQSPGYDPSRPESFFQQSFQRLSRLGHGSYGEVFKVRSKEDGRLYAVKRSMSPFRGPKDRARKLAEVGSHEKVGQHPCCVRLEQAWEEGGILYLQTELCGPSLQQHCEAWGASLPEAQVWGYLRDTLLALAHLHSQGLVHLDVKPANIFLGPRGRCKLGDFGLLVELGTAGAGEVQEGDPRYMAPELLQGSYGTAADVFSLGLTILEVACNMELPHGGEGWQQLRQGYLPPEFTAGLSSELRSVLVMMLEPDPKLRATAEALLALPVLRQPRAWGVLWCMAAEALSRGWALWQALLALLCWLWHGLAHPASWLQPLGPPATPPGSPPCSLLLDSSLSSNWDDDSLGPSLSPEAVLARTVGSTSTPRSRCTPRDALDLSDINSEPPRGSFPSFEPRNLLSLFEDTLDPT
# Assay: Inhibition of PKMYT1 (unknown origin) incubated for 1 hr by LanthaScreen Eu kinase binding method
row,Compound,IC50
1,O=C(O[C@@H]1Cc2c(O)cc(O)cc2O[C@@H]1c1cc(O)c(O)c(O)c1)c1cc(O)c(O)c(O)c1 [EPIGALOCATECHIN GALLATE],137 nM
2,O=c1cc(-c2ccc(O)c(O)c2)oc2cc(O)cc(O)c12 [LUTEOLIN],1500 nM
3,COc1ccc(-c2oc3c(CC=C(C)C)c(O)cc(O)c3c(=O)c2O)cc1 [ICARITIN],51000 nM
4,O=c1c(-c2ccc(O)cc2)coc2cc(O)cc(O)c12 [GENISTEIN],78000 nM
5,O=C(O[C@@H]1Cc2c(O)cc(O)cc2O[C@H]1c1cc(O)c(O)c(O)c1)c1cc(O)c(O)c(O)c1 [GALLOCATECHIN GALLATE],159 nM

# Target: T1, Membrane-associated tyrosine- and threonine-specific cdc2-inhibitory kinase
# Assay: Displacement of fluorescently labeled tracer from human PKMYT1 (75 to 362 residues) expressed in Escherichia coli BL21 (DE3) by fluorescence anisotropy based kinase assay
row,IC50,Compound
1,72 nM,CCN(CC)CCOc1ccc(Nc2ncc3cc(-c4c(Cl)cccc4Cl)c(=O)n(C)c3n2)cc1 [PD-0166285]

# Source: ChEMBL document CHEMBL6074645, “Structure-based virtual screening discovers novel PKMYT1 inhibitors” (RSC Med Chem, 2024)
